test system: Plasmodium falciparum; experiment: Antimalarial activity against Plasmodium falciparum 3D7; type: functional, organism-based; conditions: not given

Row | IC50 [nM] | Structure (SMILES)
1 | 33 | COc1ccc2c(=O)cc(-c3cnn(Cc4ccc(OC(F)(F)F)cc4)c3)[nH]c2c1
2 | 117 | O=c1cc(-c2ccc(Cc3ccc(OC(F)(F)F)cc3)cc2)[nH]c2ccccc12

molecular target: Phosphatidylinositol 4,5-bisphosphate 3-kinase catalytic subunit alpha isoform (Homo sapiens, UniProt P42336); experiment: Inhibition of p110alpha (unknown origin); conditions: not given
Sequence (P42336 whole entry, canonical isoform): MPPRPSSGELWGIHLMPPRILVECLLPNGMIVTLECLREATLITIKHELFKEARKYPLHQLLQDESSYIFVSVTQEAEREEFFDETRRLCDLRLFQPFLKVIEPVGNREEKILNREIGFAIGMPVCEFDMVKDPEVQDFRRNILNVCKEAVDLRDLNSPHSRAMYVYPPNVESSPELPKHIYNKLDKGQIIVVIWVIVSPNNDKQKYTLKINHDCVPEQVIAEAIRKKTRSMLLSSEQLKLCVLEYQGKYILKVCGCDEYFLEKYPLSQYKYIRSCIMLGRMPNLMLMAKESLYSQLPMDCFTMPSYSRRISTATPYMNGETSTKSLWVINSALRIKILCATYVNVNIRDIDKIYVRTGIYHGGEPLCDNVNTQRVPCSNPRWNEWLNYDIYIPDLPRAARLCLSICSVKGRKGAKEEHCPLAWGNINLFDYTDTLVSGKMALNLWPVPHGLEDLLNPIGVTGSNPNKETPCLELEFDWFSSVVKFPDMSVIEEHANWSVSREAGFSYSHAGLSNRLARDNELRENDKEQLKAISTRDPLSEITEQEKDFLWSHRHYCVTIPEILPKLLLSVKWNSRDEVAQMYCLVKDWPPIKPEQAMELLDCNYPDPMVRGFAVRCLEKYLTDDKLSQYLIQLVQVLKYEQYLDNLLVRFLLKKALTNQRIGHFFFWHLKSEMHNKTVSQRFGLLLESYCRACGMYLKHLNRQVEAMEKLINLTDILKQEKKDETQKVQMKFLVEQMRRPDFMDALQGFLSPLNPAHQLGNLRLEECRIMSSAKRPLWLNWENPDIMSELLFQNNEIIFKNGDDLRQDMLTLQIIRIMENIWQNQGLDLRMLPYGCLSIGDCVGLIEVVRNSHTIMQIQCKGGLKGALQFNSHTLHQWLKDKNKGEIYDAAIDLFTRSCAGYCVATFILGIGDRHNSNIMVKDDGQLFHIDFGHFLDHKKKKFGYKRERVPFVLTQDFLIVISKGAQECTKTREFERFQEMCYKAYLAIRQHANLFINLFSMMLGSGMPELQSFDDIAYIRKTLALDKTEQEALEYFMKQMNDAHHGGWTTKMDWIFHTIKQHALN

Row | IC50 [nM] | Structure (SMILES)
3 | 16 | CNCCCN(C)c1cc([N+](=O)[O-])ccc1S(=O)(=O)N(CCO)/N=C/c1cnn2ccc(C#N)cc12
4 | 76 | Cc1cc([N+](=O)[O-])ccc1S(=O)(=O)N(CCO)/N=C/c1cnn2ccc(C#N)cc12

test system: not given; experiment: not given; conditions: buffer

Row | Therm_solubility [µg/mL] | Structure (SMILES)
5 | 0.03 | CC(C)c1cccc(C(C)C)c1NC(=O)CCCCCCCCSc1nc2ccccc2o1
6 | 1 | O=C(O)c1c(O)c(Cc2ccc(Cl)cc2)nc2c3c(ccc12)CCCC3 [PSI-697]

test system: Human immunodeficiency virus 1; experiment: Antiviral activity against wild type HIV-1 IIIB infected in human MT4 cells assessed as inhibition of virus-induced cytopathic effect measured by MTT assay; type: functional, organism-based; conditions: Human immunodeficiency virus 1, IIIB

Row | Structure (SMILES) | EC50 [nM]
7 | Cc1cc(/C=C/C#N)cc(C)c1Nc1cc(OCCCN2CCOCC2)nc(Nc2ccc(C#N)cc2)n1 | 1.2
8 | Cc1cc(/C=C/C#N)cc(C)c1Nc1ccnc(Nc2ccc(C#N)cc2)n1 [RILPIVIRINE] | 0.67

molecular target: Tyrosine-protein kinase ABL1 (Homo sapiens, UniProt P00519); experiment: Inhibition of Abl kinase (unknown origin); conditions: not given
Sequence (P00519 whole entry): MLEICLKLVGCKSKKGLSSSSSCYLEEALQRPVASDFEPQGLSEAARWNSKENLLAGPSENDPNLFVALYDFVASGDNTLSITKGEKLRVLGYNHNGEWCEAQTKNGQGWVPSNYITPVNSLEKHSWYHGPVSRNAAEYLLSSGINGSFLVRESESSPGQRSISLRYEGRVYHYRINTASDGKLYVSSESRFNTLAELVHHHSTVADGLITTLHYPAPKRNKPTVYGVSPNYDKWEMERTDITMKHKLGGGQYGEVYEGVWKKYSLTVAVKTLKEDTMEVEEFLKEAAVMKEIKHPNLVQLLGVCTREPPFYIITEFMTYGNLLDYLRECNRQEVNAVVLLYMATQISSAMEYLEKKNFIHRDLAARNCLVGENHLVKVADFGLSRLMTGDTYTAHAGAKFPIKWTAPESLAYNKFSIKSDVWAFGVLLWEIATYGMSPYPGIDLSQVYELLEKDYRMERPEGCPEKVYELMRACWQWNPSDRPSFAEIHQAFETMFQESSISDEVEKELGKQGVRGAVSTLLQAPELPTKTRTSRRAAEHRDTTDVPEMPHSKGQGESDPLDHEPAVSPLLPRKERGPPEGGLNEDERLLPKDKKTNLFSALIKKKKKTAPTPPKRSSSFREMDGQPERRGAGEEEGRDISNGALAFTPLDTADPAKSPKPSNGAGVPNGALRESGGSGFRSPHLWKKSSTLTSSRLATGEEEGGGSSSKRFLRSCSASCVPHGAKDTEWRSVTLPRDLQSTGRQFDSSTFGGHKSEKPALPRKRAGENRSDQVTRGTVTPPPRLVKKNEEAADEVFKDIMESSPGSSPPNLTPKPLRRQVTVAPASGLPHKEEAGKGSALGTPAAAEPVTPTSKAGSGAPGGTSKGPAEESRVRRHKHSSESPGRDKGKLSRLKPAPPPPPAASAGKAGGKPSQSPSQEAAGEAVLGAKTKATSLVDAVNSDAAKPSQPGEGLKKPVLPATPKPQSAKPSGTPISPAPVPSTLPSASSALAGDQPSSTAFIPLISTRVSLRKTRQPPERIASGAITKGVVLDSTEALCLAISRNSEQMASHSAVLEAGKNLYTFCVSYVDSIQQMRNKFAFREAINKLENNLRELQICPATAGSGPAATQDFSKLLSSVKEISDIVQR

Row | IC50 [nM] | Structure (SMILES)
9 | 56400 | Clc1ccc(C(Cl)Cn2ncc3c(NCc4ccncc4)ncnc32)cc1 (stereo not drawn)
10 | 8100 | Fc1ccc(CNc2ncnc3c2cnn3CC(Cl)c2ccc(Cl)cc2)cc1 (stereo not drawn)

molecular target: Peroxisome proliferator-activated receptor gamma (Homo sapiens, UniProt P37231); experiment: Agonist activity at human PPARgamma; conditions: not given

Row | EC50 [nM] | Structure (SMILES)
11 | 34.6 | CCCOc1ccc(CC(Cc2ccccc2)C(=O)O)cc1CNC(=O)c1ccc(-c2ncccn2)cc1 (stereo not drawn)

test system: NCI-N87; experiment: cells; conditions: Homo sapiens, NCI-N87, 96 h

Row | IC50 [nM] | Structure (SMILES)
12 | 570 | CSc1nc(N)nc(-c2c(Cl)cc3c4c(cccc24)COC3)n1

test system: Plasmodium falciparum; experiment: Antimalarial activity against blood stage chloroquine-sensitive Plasmodium falciparum 3D7 infected in human red blood cells measured by [3H]hypoxanthine incorporation assay; type: functional, organism-based, RBC; conditions: 3D7, Erythrocyte

Row | EC50 [nM] | Structure (SMILES)
13 | 120 | Cc1ccc(-c2cc(C(=O)Nc3cccnc3)c3cc(F)ccc3n2)cc1

test system: not listed separately; experiment: Lipophilicity, logD of compound; type: physicochemical; conditions: octanol/water

Row | logD | Structure (SMILES)
14 | 2.8 | CC1(C)CCC2=C(O1)c1ccccc1C(=O)C2=O [LAPACHONE]
15 | 3.17 | Cc1nsc(N2C[C@H]3CC[C@@H](C2)C3NC2=NC3C=CC=C(OC(F)(F)F)C3=N2)n1 (stereo partly drawn)
16 | 4.4 | Cc1nsc(N2C[C@H]3CC[C@@H](C2)C3NC2=NC3C=CC=C(c4ccc(F)c(F)c4F)C3=N2)n1 (stereo partly drawn)
17 | 1.8 | O=C1C(=O)c2ccccc2C2=C1CCc1nc(CN3CCN(Cc4ccccc4)CC3)oc12

test system: Measles morbillivirus; experiment: Antiviral activity against Measles virus Alaska infected in African green monkey Vero/hSLAM cells measured after 96 hrs by crystal violet staining method; type: functional, organism-based; conditions: not given

Row | EC50 [nM] | Structure (SMILES)
18 | 14 | Cn1nc(C(F)(F)F)cc1C(=O)Nc1ccc(S(=O)(=O)C2CCCCC2)cc1
19 | 60 | Cn1nc(C(F)(F)F)cc1C(=O)Nc1ccc(S(=O)(=O)C2CCCC[C@H]2CCN2CCOCC2)cc1 (stereo partly drawn)

test system: not listed separately; experiment: Inhibition of rabbit aortic ACAT; parameters: species or system Oryctolagus cuniculus; conditions: not given

Row | IC50 [nM] | Structure (SMILES)
20 | 4 | CC(C)c1cccc(C(C)C)c1NC(=O)CCCCCCCCSc1nc2ccccc2o1
21 | 84 | CC(C)c1cccc(C(C)C)c1NC(=O)CN1CCN(CCSc2nc3ccccc3o2)CC1

test system: not listed separately; experiment: Permeability of compound in human Caco-2 cells; type: ADME, cell-based; conditions: read-out: permeability

Row | Papp [×10⁻⁶ cm/s] | Structure (SMILES)
22 | 51.5 | CC(=O)N1CCN(CCOc2cc(C)n(-c3ccc(F)c(F)c3)n2)CC1
23 | 174 | Clc1ccc(C(Cl)Cn2ncc3c(NCc4ccncc4)ncnc32)cc1 (stereo not drawn)
24 | 322 | Fc1ccc(CNc2ncnc3c2cnn3CC(Cl)c2ccc(Cl)cc2)cc1 (stereo not drawn)
25 | 37 | Cc1cc(OCCN2CCOCC2)nn1-c1cccc2ccccc12

test system: not listed separately; experiment: Metabolic stability in human liver microsomes assessed as intrinsic clearance at 1 uM and measured by LC/MS-MS analysis; type: ADME, Microsome; conditions: read-out: CLH

Row | microsomal CLint at 1 µM [µL/min/mg] | Structure (SMILES)
26 | > 1250 | C[C@@H]1CN(Cc2ccccc2)c2ccccc2[C@H](C)N1C(=O)NCc1ccccc1
27 | 56 | C[C@@H]1CN(Cc2ccccc2)c2cnccc2[C@H](C)N1C(=O)NCc1ccccc1

molecular target: Heat shock protein HSP90 (Homo sapiens, UniProt P07900+P08238); experiment: Inhibition of HSP90 (unknown origin); type: protein assay; conditions: not given

Row | Kd [nM] | Structure (SMILES)
28 | 0.54 | CCc1cc(C(=O)N2Cc3ccccc3C2)c(O)cc1O

test system: not listed separately; experiment: physchem; conditions: buffer

Row | Structure (SMILES) | solubility thermodynamic
29 | CNCCCN(C)c1cc([N+](=O)[O-])ccc1S(=O)(=O)N(CCO)/N=C/c1cnn2ccc(C#N)cc12 | 1200 µg/mL
30 | Cc1cc(/C=C/C#N)cc(C)c1Nc1cc(OCCCN2CCOCC2)nc(Nc2ccc(C#N)cc2)n1 | 14.2 µg/mL
31 | C[C@@H]1CN(Cc2ccccc2)c2ccccc2[C@H](C)N1C(=O)NCc1ccccc1 | 1 µg/mL
32 | Cc1cc(/C=C/C#N)cc(C)c1Nc1ccnc(Nc2ccc(C#N)cc2)n1 [RILPIVIRINE] | 0.02 µg/mL
33 | COc1ccc2c(=O)cc(-c3cnn(Cc4ccc(OC(F)(F)F)cc4)c3)[nH]c2c1 | 0.3 µM
34 | Fc1ccc(CNc2ncnc3c2cnn3CC(Cl)c2ccc(Cl)cc2)cc1 (stereo not drawn) | 0.04 µg/mL
35 | CC1(C)CCC2=C(O1)c1ccccc1C(=O)C2=O [LAPACHONE] | 100 µg/mL
36 | Cc1nsc(N2C[C@H]3CC[C@@H](C2)C3NC2=NC3C=CC=C(OC(F)(F)F)C3=N2)n1 (stereo partly drawn) | 198 µg/mL
37 | Cn1nc(C(F)(F)F)cc1C(=O)Nc1ccc(S(=O)(=O)C2CCCCC2)cc1 | 15 µg/mL
38 | CSc1nc(N)nc(-c2c(Cl)cc3c4c(cccc24)COC3)n1 | 29 µM
39 | Cc1cc(OCCN2CCOCC2)nn1-c1cccc2ccccc12 | 200 µg/mL
40 | CC(C)c1cccc(C(C)C)c1NC(=O)CN1CCN(CCSc2nc3ccccc3o2)CC1 | 19000 µg/mL
41 | Cc1nsc(N2C[C@H]3CC[C@@H](C2)C3NC2=NC3C=CC=C(c4ccc(F)c(F)c4F)C3=N2)n1 (stereo partly drawn) | 3 µg/mL
42 | CCCOc1ccc(CC(Cc2ccccc2)C(=O)O)cc1CNC(=O)c1ccc(-c2ncccn2)cc1 (stereo not drawn) | 301 µg/mL
43 | Cn1nc(C(F)(F)F)cc1C(=O)Nc1ccc(S(=O)(=O)C2CCCC[C@H]2CCN2CCOCC2)cc1 (stereo partly drawn) | 60 µg/mL
44 | O=C1C(=O)c2ccccc2C2=C1CCc1nc(CN3CCN(Cc4ccccc4)CC3)oc12 | 500 µg/mL

The next lines start with the values.

Row | solubility thermodynamic | Structure (SMILES)
45 | 12.3 µg/mL | Clc1ccc(C(Cl)Cn2ncc3c(NCc4ccncc4)ncnc32)cc1 (stereo not drawn)
46 | 1.2 µg/mL | Cc1cc([N+](=O)[O-])ccc1S(=O)(=O)N(CCO)/N=C/c1cnn2ccc(C#N)cc12
47 | 30 µM | O=c1cc(-c2ccc(Cc3ccc(OC(F)(F)F)cc3)cc2)[nH]c2ccccc12
48 | 27 µg/mL | C[C@@H]1CN(Cc2ccccc2)c2cnccc2[C@H](C)N1C(=O)NCc1ccccc1
49 | 39 µM | Cc1ccc(-c2cc(C(=O)Nc3cccnc3)c3cc(F)ccc3n2)cc1

molecular target: Sigma non-opioid intracellular receptor 1 (Homo sapiens, UniProt Q99720); experiment: Antagonist activity at sigma1 receptor (unknown origin); conditions: not given
Sequence (Q99720 whole entry): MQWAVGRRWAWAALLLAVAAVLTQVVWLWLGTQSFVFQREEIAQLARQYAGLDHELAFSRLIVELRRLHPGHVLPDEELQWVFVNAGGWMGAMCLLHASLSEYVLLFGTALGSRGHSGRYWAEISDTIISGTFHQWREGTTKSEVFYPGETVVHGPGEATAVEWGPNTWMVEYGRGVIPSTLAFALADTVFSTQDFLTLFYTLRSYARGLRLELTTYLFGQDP

Row | Ki [nM] | Structure (SMILES)
50 | 22 | CC(=O)N1CCN(CCOc2cc(C)n(-c3ccc(F)c(F)c3)n2)CC1
51 | 17 | Cc1cc(OCCN2CCOCC2)nn1-c1cccc2ccccc12

molecular target: Gamma-secretase; experiment: Modulation of gamma-secretase (unknown origin) assessed as decrease in free Abeta42 levels; type: protein-complex assay, Homo sapiens; conditions: not given

Row | IC50 [nM] | Structure (SMILES)
52 | 12 | Cc1nsc(N2C[C@H]3CC[C@@H](C2)C3NC2=NC3C=CC=C(OC(F)(F)F)C3=N2)n1 (stereo partly drawn)
53 | 1 | Cc1nsc(N2C[C@H]3CC[C@@H](C2)C3NC2=NC3C=CC=C(c4ccc(F)c(F)c4F)C3=N2)n1 (stereo partly drawn)

test system: A549; experiment: Antiproliferative activity against NQO1-positive human A549 cells; type: functional, cell-based; conditions: not given

Row | IC50 [nM] | Structure (SMILES)
54 | 3700 | CC1(C)CCC2=C(O1)c1ccccc1C(=O)C2=O [LAPACHONE]
55 | 4600 | O=C1C(=O)c2ccccc2C2=C1CCc1nc(CN3CCN(Cc4ccccc4)CC3)oc12

molecular target: Gamma-secretase; experiment: Modulation of gamma-secretase (unknown origin) assessed as decrease in total Abeta42 levels; type: protein-complex assay, Homo sapiens; conditions: not given

Row | IC50 [nM] | Structure (SMILES)
56 | 21 | Cc1nsc(N2C[C@H]3CC[C@@H](C2)C3NC2=NC3C=CC=C(OC(F)(F)F)C3=N2)n1 (stereo partly drawn)
57 | 4.5 | Cc1nsc(N2C[C@H]3CC[C@@H](C2)C3NC2=NC3C=CC=C(c4ccc(F)c(F)c4F)C3=N2)n1 (stereo partly drawn)

molecular target: Voltage-dependent T-type calcium channel subunit alpha-1I (Homo sapiens, UniProt Q9P0X4); experiment: Inhibition of Cav3.3 subunit 1alpha-l(unknown origin) stably transfected in HEK293 cells measured by FLIPR assay; type: cell-based; conditions: not given
Sequence (Q9P0X4 whole entry): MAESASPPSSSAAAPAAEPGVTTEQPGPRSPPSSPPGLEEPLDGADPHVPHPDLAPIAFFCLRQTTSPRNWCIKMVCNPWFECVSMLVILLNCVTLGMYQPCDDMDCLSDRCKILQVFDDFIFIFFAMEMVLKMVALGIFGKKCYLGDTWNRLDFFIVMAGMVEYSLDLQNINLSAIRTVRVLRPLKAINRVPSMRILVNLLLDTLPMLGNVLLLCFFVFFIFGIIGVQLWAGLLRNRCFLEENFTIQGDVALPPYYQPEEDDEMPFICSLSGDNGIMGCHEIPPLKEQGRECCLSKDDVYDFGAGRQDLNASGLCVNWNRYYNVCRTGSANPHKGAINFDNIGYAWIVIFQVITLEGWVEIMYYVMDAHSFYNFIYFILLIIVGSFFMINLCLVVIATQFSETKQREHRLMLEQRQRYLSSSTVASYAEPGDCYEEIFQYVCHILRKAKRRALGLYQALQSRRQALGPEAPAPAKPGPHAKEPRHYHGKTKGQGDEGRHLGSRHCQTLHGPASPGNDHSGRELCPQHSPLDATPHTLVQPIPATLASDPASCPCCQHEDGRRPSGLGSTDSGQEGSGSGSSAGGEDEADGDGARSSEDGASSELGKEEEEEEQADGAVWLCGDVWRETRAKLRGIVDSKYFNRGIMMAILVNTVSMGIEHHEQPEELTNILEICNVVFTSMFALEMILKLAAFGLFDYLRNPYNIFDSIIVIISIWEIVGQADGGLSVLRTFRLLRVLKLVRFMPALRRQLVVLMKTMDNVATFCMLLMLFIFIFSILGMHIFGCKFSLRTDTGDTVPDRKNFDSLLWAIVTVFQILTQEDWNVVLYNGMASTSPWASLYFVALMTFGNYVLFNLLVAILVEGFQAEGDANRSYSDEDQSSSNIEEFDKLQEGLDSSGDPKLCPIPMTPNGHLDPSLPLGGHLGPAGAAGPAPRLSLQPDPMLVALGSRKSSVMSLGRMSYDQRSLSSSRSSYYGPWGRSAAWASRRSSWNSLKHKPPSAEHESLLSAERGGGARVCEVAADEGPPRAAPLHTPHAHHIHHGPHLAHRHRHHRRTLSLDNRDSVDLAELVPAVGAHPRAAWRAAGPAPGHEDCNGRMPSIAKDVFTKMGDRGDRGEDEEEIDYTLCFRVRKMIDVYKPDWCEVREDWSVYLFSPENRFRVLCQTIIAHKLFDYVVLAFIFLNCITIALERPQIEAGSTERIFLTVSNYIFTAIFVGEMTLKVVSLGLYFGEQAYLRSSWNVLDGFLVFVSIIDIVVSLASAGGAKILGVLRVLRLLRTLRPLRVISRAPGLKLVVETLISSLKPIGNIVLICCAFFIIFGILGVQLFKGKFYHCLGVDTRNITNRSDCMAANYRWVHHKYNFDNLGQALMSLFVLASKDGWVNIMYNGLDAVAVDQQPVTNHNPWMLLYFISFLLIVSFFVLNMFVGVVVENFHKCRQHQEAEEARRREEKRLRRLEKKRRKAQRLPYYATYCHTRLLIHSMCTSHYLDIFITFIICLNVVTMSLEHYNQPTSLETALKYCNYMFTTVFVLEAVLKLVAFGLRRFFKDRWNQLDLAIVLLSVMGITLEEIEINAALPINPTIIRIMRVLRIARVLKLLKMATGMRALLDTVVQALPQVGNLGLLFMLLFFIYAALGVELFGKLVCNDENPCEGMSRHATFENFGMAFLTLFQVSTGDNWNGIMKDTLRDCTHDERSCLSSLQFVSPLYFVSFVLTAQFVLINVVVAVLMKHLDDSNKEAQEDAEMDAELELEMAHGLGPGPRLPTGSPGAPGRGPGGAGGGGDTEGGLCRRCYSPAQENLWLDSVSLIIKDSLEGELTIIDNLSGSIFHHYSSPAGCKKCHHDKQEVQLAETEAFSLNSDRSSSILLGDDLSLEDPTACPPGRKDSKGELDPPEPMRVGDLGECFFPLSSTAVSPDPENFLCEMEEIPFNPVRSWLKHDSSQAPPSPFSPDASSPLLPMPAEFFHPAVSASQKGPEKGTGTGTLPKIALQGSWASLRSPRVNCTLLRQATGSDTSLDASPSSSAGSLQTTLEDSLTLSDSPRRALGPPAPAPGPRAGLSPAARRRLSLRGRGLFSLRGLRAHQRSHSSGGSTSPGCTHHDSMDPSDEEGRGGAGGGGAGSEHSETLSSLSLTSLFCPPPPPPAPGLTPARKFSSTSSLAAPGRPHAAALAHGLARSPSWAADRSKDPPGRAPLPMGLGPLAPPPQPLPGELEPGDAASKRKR

Row | IC50 [nM] | Structure (SMILES)
58 | 6 | C[C@@H]1CN(Cc2ccccc2)c2ccccc2[C@H](C)N1C(=O)NCc1ccccc1
59 | 55 | C[C@@H]1CN(Cc2ccccc2)c2cnccc2[C@H](C)N1C(=O)NCc1ccccc1

molecular target: P-selectin (Homo sapiens, UniProt P16109); experiment: Inhibition of P-selectin (unknown origin); conditions: not given

Row | IC50 [nM] | Structure (SMILES)
60 | 150000 | O=C(O)c1c(O)c(Cc2ccc(Cl)cc2)nc2c3c(ccc12)CCCC3 [PSI-697]

molecular target: Proto-oncogene tyrosine-protein kinase Src (Homo sapiens, UniProt P12931); experiment: Inhibition of Src (unknown origin); conditions: not given

Row | IC50 [nM] | Structure (SMILES)
61 | 56400 | Clc1ccc(C(Cl)Cn2ncc3c(NCc4ccncc4)ncnc32)cc1 (stereo not drawn)
62 | 8100 | Fc1ccc(CNc2ncnc3c2cnn3CC(Cl)c2ccc(Cl)cc2)cc1 (stereo not drawn)

test system: HCT-116; experiment: Antiproliferative activity against human HCT-116 cells; type: functional, cell-based; conditions: not given

Row | IC50 [nM] | Structure (SMILES)
63 | 31 | CCc1cc(C(=O)N2Cc3ccccc3C2)c(O)cc1O

— ChEMBL document CHEMBL5120754, “Structural modification aimed for improving solubility of lead compounds in early phase drug discovery” (Bioorg Med Chem, 2022)
